Measurements: patent US20060100153A1, “HSulf-1 nucleic acids, polypeptides and methods of using” (Mayo Foundation for Medical Education and Research, a …, priority 2003, published 2006)
Where a SMILES comes first, the peptide text is derived from it. The star is where a group is joined. Cbz = O=C(OCc1ccccc1)*; CH2F = FC*

Tests used:
[1] = test system: SNU182, SNU475 and SNU449 HCC cell lines; experiment: Detection and quantitation of apoptosis in SNU449, SNU182 and SNU475 HCC cell lines; assay type: cell-based; details: for cisplatin-induced apoptosis: 5 μM, 24 hours; for staurosporine-induced apoptosis: 1 μM, 5 hours
Protocol: Detection and quantitation of apoptosis: Apoptosis was quantitated by assessing nuclear changes indicative of apoptosis (i.e., chromatin condensation and nuclear fragmentation) using the DNA binding dye DAPI as described by Roberts et al. (supra). Cells were seeded in 35-mm plates at 2×10^5 cells per well. After incubation for 24 hours, the plates were washed, changed to serum free medium containing 1 μM staurosporine, and incubated for 5 hours at 37° C. Five micrograms of DAPI were added and the plates were incubated for 20 minutes at room temperature in the dark. The cells were then examined by fluorescence microscopy (Nikon Eclipse TE200; […] For each treatment, at least 300 cells in six different high-power fields were counted. […] For experiments using cisplatin, cells cultured in medium with 10% serum were treated with or without 5 μM cisplatin for 24 hours, then stained with DAPI and counted. Flow cytometry also was used to evaluate apoptosis. After a 5 hour treatment with 1 μM staurosporine as described above, cells were collected by centrifugation and washed twice in ice-cold PBS with 3% heat-inactivated FBS and 0.02% sodium azide. Cells were stained with 50 μg/ml 7-AAD for 15 minutes in the dark. The cells were resuspended in 500 μl PBS and analyzed using a FACScan analyzer (BD Bioscience). Apoptotic cells were calculated as percent of 7-AAD positive cells in 5,000 or more cells per sample. Immunoblot analysis for mitochondrial cytochrome c release: Immunoblot analysis for cytochrome c utilized cytosolic extracts prepared by selective digitonin permeabilization (Leist et al. (1998) Mol. Pharmacol. 54:789-801). Blots were probed with mouse monoclonal anti-cytochrome c antibody (BD Pharmingen) or mouse anti-β-actin antibody. For caspase 9, whole-cell lysates were prepared as described above for the sulfatase assay. Membranes were probed with mouse anti-procaspase 9 or mouse anti-β-actin antibody. Immunoblots were developed using ECL enhanced chemiluminescence reagents after incubation with horseradish peroxidase-conjugated secondary antibodies.

[2] = test system: OV207 clones; experiment: Drug sensitivity of OV207 clones transfected with HSulf-1; assay type: cell-based
[3] = test system: Hep3B and Huh-7-derived clones; experiment: Cisplatin-induced apoptosis in Hep3B and Huh-7 derived clones; assay type: cell-based; details: hSulf1-transfected vs Vector stable clones; 5 μM cisplatin
Protocol: Detection and quantitation of apoptosis: Apoptosis was quantitated by assessing nuclear changes indicative of apoptosis (i.e., chromatin condensation and nuclear fragmentation) using the DNA binding dye DAPI as described by Roberts et al. (supra). Cells were seeded in 35-mm plates at 2×10^5 cells per well. After incubation for 24 hours, the plates were washed, changed to serum free medium containing 1 μM staurosporine, and incubated for 5 hours at 37° C. Five micrograms of DAPI were added and the plates were incubated for 20 minutes at room temperature in the dark. The cells were then examined by fluorescence microscopy (Nikon Eclipse TE200; […] For each treatment, at least 300 cells in six different high-power fields were counted. […] For experiments using cisplatin, cells cultured in medium with 10% serum were treated with or without 5 μM cisplatin for 24 hours, then stained with DAPI and counted.

[4] = test system: SKOV3 cells; experiment: Analysis of apoptosis (DAPI fluorescence microscopy, DNA fragmentation, 7-AAD flow cytometry, cytochrome c) in SKOV3 cells; assay type: cell-based; set-up: apoptosis, % of cells: dose or concentration left out as unconfirmed
Protocol: Analysis of Apoptosis: […] HSulf-1 transfected SKOV3 cells were seeded in 35-mm plates at a density of 2×10^5 cells/well. After incubation at 37° C. for 24 hours, the plates were washed and changed to serum-free medium. Staurosporine was added to a final concentration of 1 μm for 5 hours. DAPI was then added to each well. After a 20 minute incubation at room temperature in the dark, cells were examined by fluorescence microscopy (Nikon Eclipse TE200; Nikon Corp., Tokyo, Japan) using excitation and emission filters of 380 and 430 nm. An individual blinded to the experimental conditions counted at least 300 cells in six different high-power fields for each treatment. Each treatment was repeated at least three times in triplicate. […] The significance of differences between experimental variables was determined using the Student t test. DNA Fragmentation: Parental, vector and stable HSulf-1 clones 3 and 6 were treated with 1 μM staurosporine at 37° C. for 5 hours. Control or treated cells (5×10^5 cells) were harvested with trypsin and centrifuged. DNA was extracted using the Qiagen […]® kit. Aliquots containing 5 μg of DNA were resolved on a 1.5% agarose gel containing 0.5 μg/ml ethidium bromide and visualized under UV light. Flow Cytometry: After treatment with 1 μM staurosporine for 5 hours as described above, cells were washed twice in ice cold PBS containing 3% heat-inactivated fetal bovine serum and 0.02% sodium azide, stained with 7-aminoactinomycin D (7-AAD; 50 μg/ml) for 15 minutes in the dark, resuspended in 500 μl PBS, and subjected to flow cytometry on a FACScan analyzer (BD Bioscience, San Jose, Calif.). After analysis of 10,000 events, the percentage of 7-AAD positive cells was determined. Analysis of Cytosolic Cytochrome c: Parental SKOV3, stable clones of SKOV3-vector, and SKOV3-HSulf-1 clones 3 and 6 were treated with staurosporine as described above, washed in PBS, and incubated for 30 seconds in lysis buffer consisting of 210 mM D-mannitol, 70 mM sucrose, 10 mM HEPES, 5 mM sodium succinate, 0.2 mM EGTA, 0.15% BSA and 80 μg/ml digitonin. After sedimentation at 12,000×g for 1 minute, the supernatant was diluted with an equal volume of 2×sample buffer. The protein samples were quantified, resolved on a 12% SDS-PAGE gel, and subjected to immunoblot analysis as described below using anti-cytochrome c (mouse monoclonal; BD Pharmingen, San Diego, Calif.) at a dilution of 1:500.

[5] = test system: xenografts; details: in vivo, previous studies; cited from earlier work
[6] = test system: cancer cells; details: previous studies; cited from earlier work
[7] = test system: hSulf1 expression; experiment: Treatment with DNA methylation inhibitor, semi-quantitative RT-PCR of hSulf1; assay type: cell-based; details: SNU449 and Huh-7 cell lines; increasing concentrations (0, 5, or 10 μM), 5 days
Protocol: Isolation of total RNA, semi-quantitative RT-PCR, and quantitative real-time PCR: Total RNA was extracted from 31 pairs of matched HCCs and adjacent benign liver tissue and the 11 HCC cell lines using the RNEASY® kit (Qiagen). cDNA synthesis was performed using SUPERSCRIPT® II RNase H reverse transcriptase (Invitrogen/Life Technologies) to transcribe 1-5 μg of total RNA primed with 1 μl of 500 μg/ml random hexamers. Primers used for semi-quantitative RT-PCR were: hSulf1-F (5′-[…]-3′; […]) and hSulf1-R (5′-[…]-3′; SEQ ID NO:14), yielding an 826 bp PCR product; GAPDH-F (5′-[…]-3′; SEQ ID NO:15) and GAPDH-R (5′-[…]-3′; SEQ ID NO:16). […] For quantitative real-time PCR analysis of HCC tumors, the hSulf1 primers were hSulf1RT-F (5′- […]-3′; SEQ ID NO:39) and hSulf1RT-R (5′-[…]-3′; SEQ ID NO:40), yielding a 379 bp PCR product. Real-time PCR was performed according to the manufacturer's recommendation in a Roche LightCycler using the following profile: 95° C. for 90 seconds followed by 34 cycles of 0 seconds at 95° C., 10 seconds at 61° C., and 20 seconds at 72° C. hSulf1 mRNA levels were normalized by comparison to 18S ribosomal RNA levels measured in the same samples. […]
Treatment with the DNA methylation inhibitor, 5-aza-2′-deoxycytidine. […] RNA (2 μg) was reverse transcribed as described above and semi-quantitative RT-PCR performed as described. […]

[8] = test system: 012SCC cells; experiment: Analysis of apoptosis (DAPI, 7-AAD flow cytometry) in 012SCC cells; assay type: cell-based; details: 1 μM, 5 hours
Protocol: Analysis of Apoptosis: Apoptosis was quantitated by assessing the number of cells containing nuclear changes indicative of apoptosis (chromatin condensation and nuclear fragmentation) after staining with DAPI. HSulf-1 transfected 012SCC cells were seeded in 35-mm plates at a density of 2×10^5 cells/well. After incubation at 37° C. for 24 hours, the plates were washed and changed to serum-free medium. […] After a 5 hour incubation for staurosporine and a 24 hour incubation for cisplatin at 37° C., DAPI was added to each well at a final concentration of 5 μg/ml. After a 20 minutes incubation in the dark at 37° C., cells were examined by fluorescence microscopy (Nikon Eclipse TE200; Nikon Corp., Tokyo, Japan) using excitation and emission filters of 380 and 430 nm. An individual blinded to the experimental conditions counted at least 300 cells in six different high-power fields for each treatment. Each treatment was repeated at least three times, performed in triplicate each time. The significance of differences between experimental variables was determined using the Student t test. Detection of Apoptosis by Flow Cytometry: HSulf-1-1 or vector transfected 012SCC cells were collected by centrifugation from untreated control and staurosporine treated cells. […] The cells were then resuspended in 500 μl of PBS and analyzed by FACScan (BD Bioscience). […]

SMILES: N.N.[Cl][Pt][Cl] [cisplatin]
- cisplatin-induced apoptosis ([1]; SNU182 and three hSulf1-transfected stable clones): high sensitivity
- cisplatin-induced apoptosis ([1]; parental SNU449 and SNU449-Vector): resistant
- sensitivity to drug [2]: increased sensitivity
- cisplatin-induced apoptosis [3]: increasing sensitivity
- apoptosis, % of cells ([4]; HSulf-1-transfected cells, cisplatin, 24 hours): 25-40%
- induction of apoptosis ([4]; parental or vector-transfected cells, cisplatin, 24 hours): little apoptosis

SMILES: COc1cc2ncnc(Nc3ccc(F)c(Cl)c3)c2cc1OCCCN1CCOCC1 [Iressa]
- response of xenografts to combination [5]: enhance response of xenografts to cisplatin or paclitaxel
- sensitization to chemotherapeutic drugs in vitro [6]: sensitizes cancer cells to cisplatin, paclitaxel and topotecan

SMILES: Nc1ncn([C@H]2C[C@H](O)[C@@H](CO)O2)c(=O)n1 [5-aza-2′-deoxycytidine]
- hSulf1 expression [7]: reactivation of hSulf1 expression

SMILES: COc1cccc(-c2cc(=O)c3ccccc3o2)c1N [PD98059]
- sensitization to chemotherapeutic drugs in vitro [6]: sensitizes a variety of cell lines, including ovarian cancer cell lines, to cisplatin and paclitaxel

SMILES: COC(=O)CC(NC(=O)C(C)NC(=O)C(NC(=O)OCc1ccccc1)C(C)C)C(=O)CF (stereo not drawn) [Z-VAD(O-Me)-fmk, N-(N^α-benzyloxycarbonylvalinylalanyl) aspartic acid (O-methyl ester) fluoromethylketone] (Cbz-Val-Ala-Asp(OMe)-CH2F; configuration not given here)
- effect on staurosporine-induced apoptosis ([1]; 40 μM pretreatment for 1 hour before staurosporine): inhibited staurosporine-induced apoptosis

SMILES: CN[C@@H]1C[C@H]2O[C@@](C)([C@@H]1OC)n1c3ccccc3c3c4c(c5c6ccccc6n2c5c31)C(=O)NC4 [staurosporine]
- staurosporine-induced apoptosis ([1]; SNU182 and SNU475 (high hSulf1-expressing)): large increase in apoptosis
- staurosporine-induced apoptosis ([1]; hSulf1 negative parental SNU449 and SNU449-Vector): minimal sensitivity
- staurosporine-induced apoptosis ([1]; three hSulf1-transfected SNU449 clones): high sensitivity
- apoptosis, % of cells ([8]; HSulf-1-transfected cells): 40%
- induction of apoptosis ([8]; parental or vector-transfected cells): little apoptosis
- sensitivity to drug [2]: increased sensitivity
- induction of apoptosis ([4]; SKOV3 clones stably transfected with HSulf-1, 1 μM, 5 hours): markedly enhanced caspase-dependent apoptosis
- induction of apoptosis ([4]; parental or vector-transfected SKOV3, 1 μM, 5 hours): no induction of apoptosis
